Measurements published in US8569315B2, “Synergistic antimicrobial composition” (priority 2009, dated 2013).

Legend:
Type in all cases: cell-based
Calothrix parientina = assay: Algal efficacy testing, modified ASTM 5589, paint film; conditions: for Total conc: total biocide in paint chosen as minimum inhibitory concentration, dry film; for Total conc / % inhibition: 3 weeks
Method: (§1) Sample preparation: Samples of white acrylic latex paint free of biocides were prepared in 50 ml aliquots. Each biocide was post added to give the necessary active ingredient concentration in the paint. The total biocides concentrations tested were 750, 1500, 2500 and 5000 ppm. After biocides addition, each sample was hand mixed for a minimum of 30 sec, followed by a 3 min run on the paint shaker (RED DEVIL). Each of the paint samples as well as a control sample (containing no biocide) were used to prepare films on black plastic-vinyl chloride/acetate copolymer panels (LENETA, Mahwah, N.J.) using a 3 mil bird bar applicator. The panels were thoroughly dried for 5 days avoiding direct exposure to sunlight. Square discs (15 mm^2) were cut out from each panel and were used as the substrate for fungal and algal efficacy tests. This sample size allowed for an agar border when the sample disc was placed into the well of the test plate.
(§2) The appropriate media (BOLD'S 3N for Chlorophytes, BG-11 for Cyanobacteria, and PDA for fungi) were used to support microbial growth. The test plates were maintained at room temp (25° C.-26° C.), in a cycled light-dark environment, for 3 weeks for algae. Plates for fungal challenge tests were maintained at 30 C for three weeks. At the end of incubation period the samples were scored for percent area covered by visible microbial growth.
(§3) ASTM 5589 is a standard accelerated test method for determining resistance of various coatings (including paints) to algal defacement. To accommodate for high-throughput screening, this method was scaled down from petri plates to 12-well plates. A single coupon was placed with a pair of sterile forceps at the center of the agar plug (on top) with the painted surface facing upwards. Each well was inoculated with 150 μl of organism (1×10^6 cfu/ml) making sure that the whole surface (paint film as well as the agar surrounding it) was evenly covered. The plates were incubated at room temp (25° C.-26° C.) with cyclic exposure to light (OTT-Lite model # OTL4012P, 40 Watt, 26 KLumen) and dark phases, for a period of three weeks. The total area covered was evaluated at the end of each week after the second week according to percent area covered in 5% increments. While rating the plates, notations were made for zones of inhibition.
(§4) The SI is calculated based on F. C. Kull et.

[1] = tested on: Chlorella sp. UTEX + Chlorella kessleri; assay: as above; conditions: for Total conc: total biocide in paint chosen as minimum inhibitory concentration, dry film; for Total conc / % inhibition: 3 weeks
Method: as §1, §2, §3, §4

Gleocapsa sp. = assay: as above; conditions: for Total conc: total biocide in paint chosen as minimum inhibitory concentration, dry film; for Total conc / % inhibition: 3 weeks
Method: as §1, §2, §3, §4

Nostoc commune = assay: as above; conditions: for Total conc: total biocide in paint chosen as minimum inhibitory concentration, dry film; for Total conc / % inhibition: 3 weeks
Method: as §1, §2, §3, §4

Oscillatoria sp. = assay: as above; conditions: for Total conc: total biocide in paint chosen as minimum inhibitory concentration, dry film; for Total conc / % inhibition: 3 weeks
Method: as §1, §2, §3, §4

[2] = tested on: Trentepohlia aurea + Trentepohlia odorata; assay: as above; conditions: for Total conc: total biocide in paint chosen as minimum inhibitory concentration, dry film; for Total conc / % inhibition: 3 weeks; for % inhibition: total conc 1500 ppm in paint
Method: as §1, §2, §3, §4

Alternaria alternata = assay: Fungal efficacy testing, modified ASTM 5590, paint film; conditions: for Total conc: total biocide in paint chosen as minimum inhibitory concentration, dry film; for Total conc / % inhibition: 3 weeks
Method: as §1, §2
(§5) ASTM 5590 is a standard accelerated test method for determining resistance of various coatings (including paints) to fungal defacement. To accommodate for high-throughput screening, this method was scaled down from petri plates to 12-well plates. To set up the test, an agar plug was placed at the bottom of each well of the sterile 12-well plate. A single coupon was placed with a pair of sterile forceps at the center of the agar plug (on top) with the painted surface facing upwards. Each well was inoculated with 150 μl of organism (1×10^6 cfu/ml) making sure that the whole surface (paint film as well as the agar surrounding it) was evenly covered. The plates were incubated at 30° C. in presence of moisture, for a period of three weeks. The total percent area covered was evaluated and recorded at the end of each week after the 2nd week and recorded in increments of 5%.
as §4

Aspergillus niger = assay: as above; conditions: for Total conc: total biocide in paint chosen as minimum inhibitory concentration, dry film; for Total conc / % inhibition: 3 weeks; for % inhibition: total conc 1500 ppm in paint
Method: as §1, §2, §5, §4

Aureobasidium pullulans = assay: as above; conditions: for Total conc: total biocide in paint chosen as minimum inhibitory concentration, dry film; for Total conc / % inhibition: 3 weeks
Method: as §1, §2, §5, §4

Cladosporium herbarum = assay: as above; conditions: for Total conc: total biocide in paint chosen as minimum inhibitory concentration, dry film; for Total conc / % inhibition: 3 weeks
Method: as §1, §2, §5, §4

Penicillium funiculosum = assay: as above; conditions: for Total conc: total biocide in paint chosen as minimum inhibitory concentration, dry film; for Total conc / % inhibition: 3 weeks
Method: as §1, §2, §5, §4

Trichoderma viride = assay: as above; conditions: for Total conc: total biocide in paint chosen as minimum inhibitory concentration, dry film; for Total conc / % inhibition: 3 weeks
Method: as §1, §2, §5, §4

Stachybotris chartarum = assay: as above; conditions: for Total conc: total biocide in paint chosen as minimum inhibitory concentration, dry film
Method: as §1, §2, §5, §4

[3] = total conc 750 ppm in paint, Table 3
[4] = total conc 1500 ppm in paint, Table 3
[5] = total conc 2500 ppm in paint, Table 3
[6] = total conc 2500 ppm in paint, Table 4
[7] = total conc 1500 ppm in paint, Table 4
[8] = total conc 750 ppm in paint, Table 4
[9] = total conc 1500 ppm in paint, Table 1
[10] = total conc 1500 ppm in paint, Table 2

SMILES: CCOc1nc(F)cc2nc(S(=O)(=O)Nc3c(Cl)cccc3Cl)nn12 [Diclosulam]
- Total conc (Calothrix parientina; Table 3): 750 ppm
- % inhibition (Calothrix parientina; [3]): 80%
- Total conc ([1]; Table 3): 750 ppm
- % inhibition [1, 3]: 75%
- Total conc (Gleocapsa sp.; Table 3): 1500 ppm
- % inhibition (Gleocapsa sp.; [4]): 60%
- Total conc (Nostoc commune; Table 3): 2500 ppm
- % inhibition (Nostoc commune; [5]): 75%
- Total conc (Oscillatoria sp.; Table 3): 750 ppm
- % inhibition (Oscillatoria sp.; [3]): 80%
- Total conc ([2]; Table 3): 1500 ppm
- % inhibition ([2]; Table 3): 80%
- Total conc (Alternaria alternata; Table 4): 2500 ppm
- % inhibition (Alternaria alternata; [6]): 0%
- Total conc (Aspergillus niger; Table 4): 1500 ppm
- % inhibition (Aspergillus niger; Table 4): 80%
- Total conc (Aureobasidium pullulans; Table 4): 1500 ppm
- % inhibition (Aureobasidium pullulans; [7]): 35%
- Total conc (Cladosporium herbarum; Table 4): 2500 ppm
- % inhibition (Cladosporium herbarum; [6]): 80%
- Total conc (Penicillium funiculosum; Table 4): 2500 ppm
- % inhibition (Penicillium funiculosum; [6]): 45%
- Total conc (Trichoderma viride; Table 4): 750 ppm
- % inhibition (Trichoderma viride; [8]): 80%

SMILES: Cc1ccn2nc(S(=O)(=O)Nc3c(F)cccc3F)nc2n1 [Flumetsulam]
- inhibition at 2500 ppm (Calothrix parientina; 504 h): 90%
- Total conc (Calothrix parientina; Table 1): 2500 ppm
- inhibition at 2500 ppm ([1]; 504 h): 80%
- Total conc ([1]; Table 1): 2500 ppm
- inhibition at 1500 ppm (Gleocapsa sp.; 504 h): 90%
- Total conc (Gleocapsa sp.; Table 1): 1500 ppm
- inhibition at 1500 ppm (Nostoc commune; Nostoc commune, 504 h): 85%
- Total conc (Nostoc commune; Table 1): 1500 ppm
- inhibition at 1500 ppm (Oscillatoria sp.; 504 h): 80%
- Total conc (Oscillatoria sp.; Table 1): 1500 ppm
- inhibition at 1500 ppm ([2]; 504 h): 85%
- Total conc ([2]; Table 1): 1500 ppm
- inhibition at 2500 ppm (Alternaria alternata; Alternaria alternata, 504 h): 90%
- Total conc (Alternaria alternata; Table 2): 2500 ppm
- inhibition at 2500 ppm (Aspergillus niger; Aspergillus niger, 504 h): 40%
- Total conc (Aspergillus niger; Table 2): 2500 ppm
- inhibition at 2500 ppm (Aureobasidium pullulans; Aureobasidium pullulans, 504 h): 90%
- Total conc (Aureobasidium pullulans; Table 2): 2500 ppm
- inhibition at 1500 ppm (Cladosporium herbarum; Cladosporium herbarum, 504 h): 85%
- Total conc (Cladosporium herbarum; Table 2): 1500 ppm
- inhibition at 1500 ppm (Penicillium funiculosum; Talaromyces funiculosus, 504 h): 80%
- Total conc (Penicillium funiculosum; Table 2): 1500 ppm
- inhibition at 2500 ppm (Stachybotris chartarum; 504 h): 70%
- Total conc (Stachybotris chartarum; 3 weeks, Table 2): 2500 ppm
- inhibition at 2500 ppm (Trichoderma viride; Trichoderma viride, 504 h): 70%
- Total conc (Trichoderma viride; Table 2): 2500 ppm

SMILES: CCCCNC(=O)OCC#CI [IPBC, 3-iodo-2-propynyl-butylcarbamate]
- Total conc (Calothrix parientina; Table 1): 1500 ppm
- Total conc (Calothrix parientina; Table 3): 750 ppm
- % inhibition (Calothrix parientina; [3]): 80%
- % inhibition (Calothrix parientina; [9]): 80%
- Total conc ([1]; Table 1): 2500 ppm
- Total conc ([1]; Table 3): 2500 ppm
- % inhibition ([1]; total conc 2500 ppm in paint, Table 1): 80%
- % inhibition [1, 5]: 80%
- Total conc (Gleocapsa sp.; Table 1): 750 ppm
- Total conc (Gleocapsa sp.; Table 3): 2500 ppm
- % inhibition (Gleocapsa sp.; total conc 750 ppm in paint, Table 1): 80%
- % inhibition (Gleocapsa sp.; [5]): 50%
- Total conc (Nostoc commune; Table 1): 1500 ppm
- Total conc (Nostoc commune; Table 3): 1500 ppm
- % inhibition (Nostoc commune; [9]): 80%
- % inhibition (Nostoc commune; [4]): 80%
- Total conc (Oscillatoria sp.; Table 1): 1500 ppm
- Total conc (Oscillatoria sp.; Table 3): 2500 ppm
- % inhibition (Oscillatoria sp.; [9]): 80%
- % inhibition (Oscillatoria sp.; [5]): 80%
- Total conc ([2]; Table 1): 1500 ppm
- Total conc ([2]; Table 3): 1500 ppm
- % inhibition ([2]; Table 1): 80%
- % inhibition ([2]; Table 3): 80%
- Total conc (Alternaria alternata; Table 2): 1500 ppm
- Total conc (Alternaria alternata; Table 4): 2500 ppm
- % inhibition (Alternaria alternata; [10]): 85%
- % inhibition (Alternaria alternata; [6]): 50%
- Total conc (Aspergillus niger; Table 2): 1500 ppm
- Total conc (Aspergillus niger; Table 4): 1500 ppm
- % inhibition (Aspergillus niger; Table 2): 60%
- % inhibition (Aspergillus niger; Table 4): 85%
- Total conc (Aureobasidium pullulans; Table 2): 1500 ppm
- Total conc (Aureobasidium pullulans; Table 4): 750 ppm
- % inhibition (Aureobasidium pullulans; [8]): 60%
- % inhibition (Aureobasidium pullulans; [10]): 90%
- Total conc (Cladosporium herbarum; Table 2): 1500 ppm
- Total conc (Cladosporium herbarum; Table 4): 1500 ppm
- % inhibition (Cladosporium herbarum; [10]): 90%
- % inhibition (Cladosporium herbarum; [7]): 80%
- Total conc (Penicillium funiculosum; Table 2): 1500 ppm
- Total conc (Penicillium funiculosum; Table 4): 1500 ppm
- % inhibition (Penicillium funiculosum; [10]): 90%
- % inhibition (Penicillium funiculosum; [7]): 70%
- Total conc (Stachybotris chartarum; 3 weeks, Table 2): 2500 ppm
- % inhibition (Stachybotris chartarum; total conc 2500 ppm in paint, 3 weeks, Table 2): 65%
- Total conc (Trichoderma viride; Table 2): 1500 ppm
- Total conc (Trichoderma viride; Table 4): 1500 ppm
- % inhibition (Trichoderma viride; [10]): 75%
- % inhibition (Trichoderma viride; [7]): 85%
